Data published in patent publication US9856294B2, “Cyclodecapeptide compounds for use as drugs” (Commissariat A L'Energie Atomique Et Aux Energies …, priority 2010, dated 2018).
Where two headings read alike, the source gives them in different places.

How the values were obtained:
[1] = log Kapp(Hg(II)) - log Kapp(Zn(II)), pH 7.4, 298 K
Excerpt: (§1) The selectivity between two metals M/M′ corresponds to the selectivity of the ligand for the metal M compared with that for the metal M′, this selectivity being equal to: log(Kapp(M)/Kapp(M′))=log Kapp(M)−log Kapp(M′)

[2] = pH 7.4, 298 K
Excerpt: These treatments must be followed for life, and must never be interrupted. They are based on chelating drugs which reduce the absorption of copper in the body, or which increase the excretion of this metal. The treatments must be subject to periodic monitoring, so as to detect the appearance of undesirable side effects.
as §1

[3] = log Kapp(Cu(II)) - log Kapp(Zn(II))

Compound: OCC(S)CS (stereo not shown) [BAL, 2,3-dimercaptopropanol]
- Selectivity Hg/Zn [1]: 12.2

Compound: CC(C)(S)[C@@H](N)C(=O)O [Pen, D-penicillamine]
- Selectivity Cu/Zn ([2]; log Kapp(Cu(I)) - log Kapp(Zn(II))): 2.5
- Selectivity Hg/Zn [1]: 9.1

Compound: O=C(O)CN(CCN(CC(=O)O)CC(=O)O)CC(=O)O [EDTA, ethylenediaminetetraacetic acid]
- Selectivity Cu/Zn [2, 3]: 2.3
- Selectivity Hg/Zn [1]: 5

Compound: NCCNCCNCCN [Trien, triethylenetetramine]
- Selectivity Cu/Zn [2, 3]: 8.1
- Selectivity Hg/Zn [1]: 12.7
